These results are taken from patent publication US8530413B2, “Heterocyclically substituted methoxyphenyl derivatives with an oxo group, processes for preparation thereof and use thereof as medicaments” (Sanofi, priority 2010, dated 2013).

For the assay, the target named is T1, GPCR GPR40 (Rattus norvegicus, UniProt Q8K3T4).
T1 construct: expressed in transfected cells; host or cells: HEK293
T1 sequence (Q8K3T4 whole entry): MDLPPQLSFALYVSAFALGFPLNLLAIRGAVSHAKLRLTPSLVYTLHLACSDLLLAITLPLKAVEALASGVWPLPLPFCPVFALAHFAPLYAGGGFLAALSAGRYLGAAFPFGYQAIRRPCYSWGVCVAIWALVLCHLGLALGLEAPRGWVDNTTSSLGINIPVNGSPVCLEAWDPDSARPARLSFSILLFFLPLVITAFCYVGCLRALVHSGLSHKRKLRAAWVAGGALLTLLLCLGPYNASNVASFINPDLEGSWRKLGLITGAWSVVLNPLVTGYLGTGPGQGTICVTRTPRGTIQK
The assay is described as follows: In vitro FLIPR assay with recombinant cells which express the GPCR GPR40 (intracellular Ca2+). In kind it is cell-based. The conditions noted are these: recombinant HEK293 cells expressing GPR40; Fluo-4 Ca2+ change; 100% = 10 μM linoleic acid. The protocol:
In Vitro FLIPR Assay with Recombinant Cells which Express the GPCR GPR40
Function-testing assays were performed by means of the FLIPR technique (“Fluorescence Imaging Plate Reader”, Molecular Devices Corp.). For this purpose, agonist-induced changes were determined in the intracellular concentration of Ca^2+ in recombinant HEK293 cells which expressed the GPCR GPR40.
For the studies, cells were sown into 96-well microtiter plates (60 000 cells/well) and left to grow overnight. The medium was removed and the cells were incubated in buffer which contains the fluorescent dye Fluo-4. After this loading with dye, the cells were washed, test substance was added and changes were measured in the intracellular Ca^2+ concentration in the FLIPR instrument. Results were presented as the percentage change relative to the control (0%: no test substance added; 100%: 10 μM reference agonist linoleic acid added) and used to calculate dose/effect curves, and EC50 values were determined.
As usually defined, the EC50 is the midpoint of the concentration-response curve. As to `CC#CC(CC(=O)O)c1ccc(OCN2C(=O)C(C)(C)c3cc(Br)ccc32)cc1` (stereo not drawn) [Example 1, 3-[4-(5-Bromo-3,3-dimethyl-2-oxo-2,3-dihydroindol-1-ylmethoxy)phenyl]hex-4-ynoic acid], the EC50 was 110 nM.

Turning to `CC#CC(CC(=O)O)c1ccc(OCN2C(=O)C(C)(C)c3ccc(Br)cc32)cc1` (stereo not drawn) [Example 2, 3-[4-(6-Bromo-3,3-dimethyl-2-oxo-2,3-dihydro-indol-1-ylmethoxy)phenyl]hex-4-ynoic acid], the EC50 came out at 4610 nM.

With `CC#CC(CC(=O)O)c1ccc(OCN2C(=O)C(C)(C)c3cc(C(F)(F)F)ccc32)cc1` (stereo not drawn) [Example 3, 3-[4-(3,3-Dimethyl-2-oxo-5-trifluoromethyl-2,3-dihydroindol-1-ylmethoxy)phenyl]hex-4-ynoic acid], the concentration for a half-maximal effect (EC50) came out at 130 nM. For `CC#CC(CC(=O)O)c1ccc(OCN2C(=O)C(C)(C)Oc3cc(Br)ccc32)cc1` (stereo not drawn) [Example 4, 3-[4-(7-Bromo-2,2-dimethyl-3-oxo-2,3-dihydrobenzo[1,4]oxazin-4-ylmethoxy)phenyl]hex-4-ynoic acid], the EC50 was 280 nM. As for `CC#CC(CC(=O)O)c1ccc(OCN2C(=O)C(CC)(CC)c3cc(Br)ccc32)cc1` (stereo not drawn) [Example 5, 3-[4-(5-Bromo-3,3-diethyl-2-oxo-2,3-dihydroindol-1-ylmethoxy)phenyl]hex-4-ynoic acid], the EC50 was 180 nM. In the case of `CC#CC(CC(=O)O)c1ccc(OCN2C(=O)CC(C)(C)c3cc(Br)ccc32)cc1` (stereo not drawn) [Example 6, 3-[4-(6-Bromo-4,4-dimethyl-2-oxo-3,4-dihydro-2H-quinolin-1-ylmethoxy)phenyl]hex-4-ynoic acid], the EC50 amounted to 440 nM.

For `CC#CC(CC(=O)O)c1ccc(OCn2c(=O)sc3ccccc32)cc1` (stereo not drawn) [Example 7, 3-[4-(2-Oxobenzothiazol-3-ylmethoxy)phenyl]hex-4-ynoic acid], the EC50 came to 50 nM. On to `CC#CC(CC(=O)O)c1ccc(OCN2C(=O)C(C)(C)Oc3ccccc32)cc1` (stereo not drawn) [Example 8, 3-[4-(2,2-Dimethyl-3-oxo-2,3-dihydrobenzo[1,4]oxazin-4-ylmethoxy)phenyl]hex-4-ynoic acid], for which the EC50 stood at 60 nM. To `CC#CC(CC(=O)O)c1ccc(OCN2C(=O)C(C)(C)Oc3cccnc32)cc1` (stereo not drawn) [Example 9] belongs 350 nM.
